Source: paper PMC314469, “Protein Interaction Networks by Proteome Peptide Scanning” (PLoS Biology, 2004)

Test system: Myo5 SH3 domain
Assay: SPOT analysis of cellulose-bound peptides (WISE), Myo5 SH3 domain (Dataset S4)
Format: binding, Saccharomyces cerevisiae
Details: for The normalized value in BLU units: Myo5 SH3 domain
[1] = SPOT analysis of membrane-bound peptides, normalized value (see methods)
[2] = SPOT analysis of cellulose-bound 14-mer yeast proteome peptides, normalized value, mean where the peptide was synthesized more than once
[3] = SPOT analysis of membrane-synthesized peptides probed with Myo5 SH3 domain, normalized value
[4] = SPOT analysis of cellulose-bound peptides probed with Myo5 SH3 domain, normalized value

Sequence: ISHNKLSPSEPILC
- The normalized value in BLU units [1]: 206.2 BLU

Sequence: HEHNYAIPYTPATF
- The normalized value in BLU units [2]: 129.1 BLU

Sequence: SKIPKSIPIIPYVL
- The normalized value in BLU units (SPOT analysis, Myo5 SH3) [3]: 243.1 BLU

Sequence: QSKTKPLPVEPASP
- The normalized value in BLU units [1]: 122.1 BLU

Sequence: MLFSWPYPEAPIEG
- The normalized value in BLU units (SPOT analysis, Myo5 SH3) [4]: 126.4 BLU

Sequence: NEDTFLPPPPPPPS
- The normalized value in BLU units (SPOT analysis, Myo5 SH3) [4]: 20439.9 BLU

Sequence: GLLTYKGPKVPYQK
- The normalized value in BLU units (SPOT analysis, Myo5 SH3) [4]: 150.1 BLU

Sequence: SETSHHSPSAPFQR
- The normalized value in BLU units (SPOT analysis, Myo5 SH3) [4]: 257.2 BLU

Sequence: KPAVLHYPPIPASA
- The normalized value in BLU units (SPOT analysis, Myo5 SH3) [4]: 183.1 BLU

Sequence: APKYYVPPGIPTND
- The normalized value in BLU units (SPOT analysis, Myo5 SH3) [4]: 10351.6 BLU

Sequence: NPLYWLLPSHPYTI
- The normalized value in BLU units (SPOT analysis, Myo5 SH3) [4]: 165.0 BLU

Sequence: QELPRAIPVMPFVD
- The normalized value in BLU units [1]: 118.1 BLU

Sequence: TFRDMDLPQHPVIH
- The normalized value in BLU units (SPOT analysis, Myo5 SH3) [4]: 188.2 BLU

Sequence: NRANKYDPKGPIYN
- The normalized value in BLU units [1]: 205.0 BLU

Sequence: SKIKRSRPPPPPMD
- The normalized value in BLU units [1]: 5408.9 BLU

Sequence: EEQVKCNPNRPIYW
- The normalized value in BLU units [1]: 110.0 BLU

Sequence: PEDFLPPPPKPHFA
- The normalized value in BLU units (SPOT analysis, Myo5 SH3) [4]: 125.8 BLU

Sequence: ALRKFGYPFSPNDP
- The normalized value in BLU units [2]: 166.2 BLU

Sequence: RLSLLRSPKAPDAH
- The normalized value in BLU units [2]: 442.3 BLU

Sequence: RLWLYAAPKRPKTF
- The normalized value in BLU units (SPOT analysis, Myo5 SH3) [4]: 845.1 BLU

Sequence: PESAKCNPNSPRLK
- The normalized value in BLU units [1]: 253.0 BLU

Sequence: EELARVTPLTPKEY
- The normalized value in BLU units (SPOT analysis, Myo5 SH3) [3]: 181.5 BLU

Sequence: TEEILPTPVQPGGH
- The normalized value in BLU units [2]: 121.0 BLU

Sequence: GFQDRSLPHFPKNS
- The normalized value in BLU units [1]: 178.5 BLU

Sequence: DLSVHTSPHGPIGS
- The normalized value in BLU units [2]: 186.1 BLU

Sequence: IVNEKRTPALPSNL
- The normalized value in BLU units (SPOT analysis, Myo5 SH3) [3]: 101.8 BLU

Sequence: LPTGYYEPMKPSSL
- The normalized value in BLU units (SPOT analysis, Myo5 SH3) [4]: 164.9 BLU

Sequence: YVKERRPPPPPPLL
- The normalized value in BLU units [1]: 15869.6 BLU

Sequence: GKMVKWGPLRPFLS
- The normalized value in BLU units (SPOT analysis, Myo5 SH3) [3]: 644.7 BLU

Sequence: KQRIRKIPGIPLMS
- The normalized value in BLU units (SPOT analysis, Myo5 SH3) [3]: 621.8 BLU

Sequence: SEMHRAAPETPRSI
- The normalized value in BLU units (SPOT analysis, Myo5 SH3) [3]: 322.4 BLU

Sequence: AFHELGIPVIPNPS
- The normalized value in BLU units (SPOT analysis, Myo5 SH3) [4]: 193.0 BLU

Sequence: NNSTRPIPAIPMDL
- The normalized value in BLU units (SPOT analysis, Myo5 SH3) [3]: 247.2 BLU

Sequence: MLKALFTPLIPVSF
- The normalized value in BLU units [2]: 257.0 BLU

Sequence: HTIPKSGPIVPYVL
- The normalized value in BLU units (SPOT analysis, Myo5 SH3) [3]: 163.7 BLU

Sequence: GYNPKTVPFVPISG
- The normalized value in BLU units [1]: 108.5 BLU

Sequence: DSVLRQKPDKPRPI
- The normalized value in BLU units [1]: 134.9 BLU

Sequence: APAPPPPPQMPAT
- The normalized value in BLU units (SPOT analysis, Myo5 SH3) [4]: 7749 BLU

Sequence: ETKKKWQPLPPEPL
- The normalized value in BLU units (SPOT analysis, Myo5 SH3) [3]: 255.8 BLU

Sequence: TLEWLLTPYTPGDD
- The normalized value in BLU units (SPOT analysis, Myo5 SH3) [4]: 163.5 BLU

Sequence: QELRFLVPLVPLLV
- The normalized value in BLU units (SPOT analysis, Myo5 SH3) [4]: 119.1 BLU

Sequence: HPEYLSLPFEPYCF
- The normalized value in BLU units [2]: 212.9 BLU

Sequence: QRLDRDKPHEPNGY
- The normalized value in BLU units (SPOT analysis, Myo5 SH3) [3]: 217.9 BLU

Sequence: GDEERFLPNRPHYE
- The normalized value in BLU units (SPOT analysis, Myo5 SH3) [3]: 125.8 BLU

Sequence: VLTKMNAPQKPEDI
- The normalized value in BLU units [2]: 296.2 BLU

Sequence: YCPWKLCPLLPILY
- The normalized value in BLU units [1]: 176.0 BLU

Sequence: YAVDKIMPPTPAKK
- The normalized value in BLU units [1]: 109.8 BLU

Sequence: MLNEHGVPVVPSRE
- The normalized value in BLU units [2]: 199.3 BLU

Sequence: TASGKTSPILPLQN
- The normalized value in BLU units [1]: 290.5 BLU

Sequence: VFSCLRDPVIPIKL
- The normalized value in BLU units [2]: 132.4 BLU

Sequence: HPHPHPHPHTPTHT
- The normalized value in BLU units (SPOT analysis, Myo5 SH3) [4]: 238.0 BLU

Sequence: HATLYWAPVSPLKS
- The normalized value in BLU units [2]: 151.3 BLU

Sequence: IKYFKKFPKDPLAM
- The normalized value in BLU units [1]: 237.4 BLU

Sequence: VEPEWYLPILPMIL
- The normalized value in BLU units (SPOT analysis, Myo5 SH3) [4]: 235.7 BLU

Sequence: HPSGLNSPKLPPLP
- The normalized value in BLU units (SPOT analysis, Myo5 SH3) [4]: 456.8 BLU

Sequence: SYISRKYPRAPAFI
- The normalized value in BLU units (SPOT analysis, Myo5 SH3) [3]: 740.2 BLU

Sequence: NGKDKSRPPRPPPK
- The normalized value in BLU units [1]: 2621.2 BLU

Sequence: VPGEHFAPMGPNGQ
- The normalized value in BLU units [2]: 64.7 BLU

Sequence: QATGRRGPAPPPPP
- The normalized value in BLU units (SPOT analysis, Myo5 SH3) [3]: 607.2 BLU

Sequence: EFTTREGPHQPIGN
- The normalized value in BLU units [1]: 79.8 BLU

Sequence: FQDYRCSPWCPSRS
- The normalized value in BLU units (SPOT analysis, Myo5 SH3) [3]: 263.5 BLU

Sequence: KFDAKGRPIPPHPD
- The normalized value in BLU units [1]: 53.5 BLU

Sequence: TDTTKVTPIVPVPI
- The normalized value in BLU units (SPOT analysis, Myo5 SH3) [3]: 48.0 BLU

Sequence: VHFYKSLPQGPAPA
- The normalized value in BLU units (SPOT analysis, Myo5 SH3) [3]: 509.7 BLU

Sequence: RPSKFFHPPIPHIP
- The normalized value in BLU units (SPOT analysis, Myo5 SH3) [4]: 776.9 BLU

Sequence: LPFPRKNPKLPENT
- The normalized value in BLU units (SPOT analysis, Myo5 SH3) [3]: 147.2 BLU

Sequence: TELNLSCPNVPGKP
- The normalized value in BLU units [2]: 227.7 BLU

Sequence: RHSKKPAPPPPGMQ
- The normalized value in BLU units (SPOT analysis, Myo5 SH3) [3]: 1938.6 BLU

Sequence: PCKKKSKPKVPAKN
- The normalized value in BLU units [1]: 579.8 BLU

Sequence: SFTPFNRPSDPSNG
- The normalized value in BLU units (SPOT analysis, Myo5 SH3) [4]: 208.5 BLU

Sequence: INGEKACPFLPSSL
- The normalized value in BLU units (SPOT analysis, Myo5 SH3) [3]: 183.7 BLU

Sequence: KLNKRVLPSKPKKS
- The normalized value in BLU units [1]: 918.8 BLU

Sequence: EFPGKKCPRLPHRN
- The normalized value in BLU units (SPOT analysis, Myo5 SH3) [3]: 367.5 BLU

Sequence: GEIMFPAPPLPIAN
- The normalized value in BLU units (SPOT analysis, Myo5 SH3) [4]: 2774.8 BLU

Sequence: SFIRKRAPTPPAPS
- The normalized value in BLU units (SPOT analysis, Myo5 SH3) [3]: 878.2 BLU

Sequence: LDVRRIYPKGPLLV
- The normalized value in BLU units (SPOT analysis, Myo5 SH3) [3]: 231.6 BLU

Sequence: MRRCKDAPIEPPKY
- The normalized value in BLU units [1]: 155.1 BLU

Sequence: IEEGHLDPEAPDKL
- The normalized value in BLU units [2]: 84.8 BLU

Sequence: GSLVKTKPTLPLTK
- The normalized value in BLU units [1]: 421.7 BLU

Sequence: SWAVLPVPGGPVMY
- The normalized value in BLU units [2]: 69.2 BLU

Sequence: VVNEKEVPAEPETQ
- The normalized value in BLU units (SPOT analysis, Myo5 SH3) [3]: 100.0 BLU

Sequence: SKYAKLDPSTPVSL
- The normalized value in BLU units [2]: 457.3 BLU

Sequence: TAWDMVPPYSPLSE
- The normalized value in BLU units [2]: 126.6 BLU

Sequence: LLEERNNPDIPVDK
- The normalized value in BLU units (SPOT analysis, Myo5 SH3) [3]: 311.9 BLU

Sequence: LNRQKNYPDAPAIF
- The normalized value in BLU units (SPOT analysis, Myo5 SH3) [3]: 86.4 BLU

Sequence: YEADYVIPVLPGSH
- The normalized value in BLU units [2]: 124.6 BLU

Sequence: FESFLRPPSTPDLP
- The normalized value in BLU units [2]: 70.2 BLU

Sequence: SPKPFSKPQEPVKA
- The normalized value in BLU units (SPOT analysis, Myo5 SH3) [4]: 359.1 BLU

Sequence: AEIVKLTPKNPFYK
- The normalized value in BLU units (SPOT analysis, Myo5 SH3) [3]: 102.1 BLU

Sequence: SDNSKSEPLPPVIT
- The normalized value in BLU units (SPOT analysis, Myo5 SH3) [3]: 130.5 BLU

Sequence: VDSFKYEPLAPGND
- The normalized value in BLU units [1]: 134.0 BLU

Sequence: SIIPRIFPSTPGTI
- The normalized value in BLU units (SPOT analysis, Myo5 SH3) [3]: 368.8 BLU

Sequence: STNAKKDPFPPPKD
- The normalized value in BLU units (SPOT analysis, Myo5 SH3) [3]: 198.5 BLU

Sequence: GLDALNIPHKPKQL
- The normalized value in BLU units (SPOT analysis, Myo5 SH3) [4]: 167.1 BLU

Sequence: NTIIKLFPYIPIPV
- The normalized value in BLU units [1]: 203.7 BLU

Sequence: PPSIRKQPIAPDVL
- The normalized value in BLU units (SPOT analysis, Myo5 SH3) [3]: 150.3 BLU

Sequence: ADDLKYIPPIPQDF
- The normalized value in BLU units [1]: 86.7 BLU

Sequence: WLSKLVLPPPPVSI
- The normalized value in BLU units (SPOT analysis, Myo5 SH3) [4]: 4130.6 BLU

Sequence: PKHIRNEPVKPFRN
- The normalized value in BLU units (SPOT analysis, Myo5 SH3) [3]: 360.9 BLU

Sequence: LSKLRLSPENPSNT
- The normalized value in BLU units (SPOT analysis, Myo5 SH3) [3]: 157.2 BLU

Sequence: AGHIKTHPNSPTPG
- The normalized value in BLU units [2]: 60.3 BLU

Sequence: SFTRMPLPTPPIEG
- The normalized value in BLU units (SPOT analysis, Myo5 SH3) [4]: 287.1 BLU

Sequence: FSKKKEAPEDPKNL
- The normalized value in BLU units (SPOT analysis, Myo5 SH3) [3]: 148.1 BLU

Sequence: KQLKKQGPKRPSSA
- The normalized value in BLU units [2]: 468.1 BLU
